Results from ChEMBL document CHEMBL3988442, “University of Dundee, Small-Polar-MMV Screening Library” (2021).
Values joined by “and” are separate entries in the source; they are usually repeats but may differ in a detail not shown here. Equal entries are not always repeated.

Legend:
[1] = test system: Mycobacterium tuberculosis; test: Cornell M. t heat shock assay; format: functional, organism-based; conditions: for IC50: Mycobacterium tuberculosis
[2] = microbe, parasite or virus in culture; conditions: Mycobacterium tuberculosis, 96 h, read-out: pIC50 (converted)
[3] = microbe, parasite or virus in culture; conditions: Mycobacterium tuberculosis, 72 h, read-out: pIC50 (converted)
Tryptophan--tRNA ligase = Tryptophan--tRNA ligase (Mycobacterium tuberculosis (strain ATCC 25618 / H37Rv), UniProt P9WFT3); test: Biochemical assay for Mt-TrpRS; format: functional
Leishmania donovani = test: Leishmania intramacrophage assay; format: functional, organism-based; conditions: for IC50: Leishmania donovani
Plasmodium falciparum = test: Calibr Malaria Delayed Death Assay SOP; format: functional, organism-based; conditions: for IC50: Plasmodium falciparum
ClpP1P2 = ClpP1P2 (Mycobacterium tuberculosis (strain ATCC 25618 / H37Rv), UniProt P9WPC3+P9WPC5); test: in vitro assay to detect presence of AMC directly proportional to the activity of ClpP1P2. GHDDI collaboration.; format: functional
[4] = In vitro enzyme assay to detect hydrolysis of chlorophenol red-beta-D-[…] directly proportional to the number of Toxoplasma stably expressing beta-galactosidase; format: functional, organism-based, Toxoplasma gondii; conditions: for IC50: Toxoplasma gondii
Histidine--tRNA ligase = target: T1, Histidine--tRNA ligase (Leishmania infantum, UniProt A4I591); test: Leishmania infantum Histidine tRNA synthetase (LdHisRS); format: functional
T1 sequence (A4I591 whole entry): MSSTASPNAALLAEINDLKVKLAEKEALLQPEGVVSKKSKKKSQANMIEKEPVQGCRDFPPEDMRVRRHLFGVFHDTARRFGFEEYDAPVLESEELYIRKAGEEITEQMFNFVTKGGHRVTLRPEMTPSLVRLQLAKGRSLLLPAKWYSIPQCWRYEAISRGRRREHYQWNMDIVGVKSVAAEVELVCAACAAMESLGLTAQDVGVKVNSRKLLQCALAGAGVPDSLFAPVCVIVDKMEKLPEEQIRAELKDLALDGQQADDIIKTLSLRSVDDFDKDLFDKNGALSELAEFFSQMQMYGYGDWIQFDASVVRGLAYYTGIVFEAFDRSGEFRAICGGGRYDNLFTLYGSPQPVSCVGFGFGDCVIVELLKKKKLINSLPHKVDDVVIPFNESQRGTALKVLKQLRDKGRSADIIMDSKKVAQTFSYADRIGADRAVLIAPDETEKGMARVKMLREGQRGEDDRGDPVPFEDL

Row | SMILES | IC50 [1] | IC50 [2] | IC50 [3] | further results
1 | Cc1cc2c(cc1Cl)C=CC1(CCN(CC(=O)NC3CCCC3)CC1)O2 | 49.9 µM | > 50.1 µM | 45.4 µM | 
2 | COc1cccc(CNCc2nc3ccccc3c(=O)[nH]2)c1 | 67.4 µM |  |  | IC50 (Tryptophan--tRNA ligase): > 195 µM
3 | CN(C)CCN(C)C(=O)Cn1cccc2cc(-c3ccc(F)cc3)nc1-2 | 42.9 µM |  |  | pIC50 (Leishmania donovani): 4.872; IC50 (Leishmania donovani): 9.3 µM; pIC50 (Plasmodium falciparum): 6.323; IC50 (Plasmodium falciparum): 0.489 µM; pIC50 [1]: 4.438; IC50 (ClpP1P2): > 100 µM
4 | Fc1ccccc1CN1CCC[C@@H](Cn2nnc(-c3cccs3)n2)C1 | > 100 µM | 33.3 µM | 16.9 µM | 
5 | CS(=O)(=O)N[C@@H]1CN(C(=O)c2cc3ccccc3s2)C[C@H]1O | 24.6 µM | > 50.1 µM | 25.4 µM | IC50 (Tryptophan--tRNA ligase): > 195 µM; pIC50 [1]: 4.54
6 | Cc1cccc(CN2CCN(C(=O)c3cc(C4CC4)[nH]n3)CC2)c1 | 77.1 µM | 25 µM | 25.8 µM | 
7 | CC(C)c1ncc2c(n1)CN(Cc1noc(-c3ccccc3)n1)CC2 | 36.9 µM |  |  | IC50 (ClpP1P2): > 100 µM
8 | CN1CCCCC1c1ncc2c(n1)CCN(Cc1ccc(Cl)c(F)c1)C2 (centres undefined) | 50.6 µM |  |  | pIC50 (Plasmodium falciparum): 5.794; IC50 (Plasmodium falciparum): 1.55 µM; pIC50 [1]: 4.295
9 | Cc1ccc(Oc2cc(F)ccc2O[C@@H]2CCC[C@@H](N)[C@H]2O)cc1 | 33.6 µM | 47.8 µM | 39.4 µM | pIC50 (Leishmania donovani): 4.961; IC50 (Leishmania donovani): 6.4 µM; IC50 [4]: 8.59 µM; pIC50 (Plasmodium falciparum): 6.291; IC50 (Plasmodium falciparum): 0.584 µM; pIC50 [1]: 4.493
10 | Oc1cc(C2CCCCN2Cc2cccs2)nc(-c2ccccn2)n1 (centres undefined) | 17.3 µM |  |  | IC50 [4]: 2.42 µM
11 | Cc1noc(NC(=O)c2cccc(Br)c2)n1 | 16 µM | 41.8 µM | 46.3 µM | pIC50 [1]: 4.54
12 | Cl.Clc1cccc(N[C@H]2CCCN[C@H]2Cc2ccccc2)c1 | 7.22 µM | 17 µM | 8.59 µM | pIC50 (Plasmodium falciparum): 6.045; IC50 (Plasmodium falciparum): 0.981 µM
13 | CN1CCCCC1c1ncc2c(n1)CCN(CCCc1ccccc1)C2 (centres undefined) | 39.4 µM | 41.2 µM | 44.5 µM | pIC50 [1]: 4.46
14 | O=C(NCCc1cccc(F)c1)C1(n2cnnn2)CCCCC1 | 11.1 µM | 43.2 µM | 46.9 µM | 
15 | CCn1ccc(-c2cc(NCCCOc3cccc(C)c3)nc(C)n2)n1 | 55.1 µM | 18.9 µM | 30.2 µM | pIC50 [1]: 4.417
16 | CC(C)Cc1ncc2c(n1)CN(c1nccc(NC(C)C)n1)C2 | 34.5 µM | 15.5 µM | 23.9 µM | 
17 | Cc1cc(C(=O)N2CCN(c3nc4c(C(C)C)cccc4s3)CC2)no1 | 57.9 µM | 42.6 µM | > 50.1 µM | 
18 | Cc1nc(C2CCNCC2)cc(N(C)Cc2cc3cc(F)ccc3[nH]2)n1 | 72.3 µM |  |  | pIC50 (Leishmania donovani): 4.976; IC50 (Leishmania donovani): 11.9 µM; pIC50 [4]: 5.24 and 4.835; pIC50 (Plasmodium falciparum): 6.017; IC50 (Plasmodium falciparum): 0.803 µM
19 | Cc1nc(-n2nc(C3CC3)cc2NC(=O)C(C)C)[nH]c(=O)c1C | 7.58 µM | 14.2 µM | 10.2 µM | pIC50 [4]: 5.686; IC50 [4]: 3.09 µM
20 | CC(C)C[C@H](N)COc1cccc(F)c1Oc1cccc(Cl)c1 | 13.9 µM | 22.6 µM | 18.5 µM | IC50 (ClpP1P2): > 100 µM

Row | SMILES | IC50 [1] | IC50 [2] | IC50 [3] | further results
21 | CC1(c2ccccc2)CCCN(Cc2cncn2C2CCCC2)C1 (centres undefined) | 14.4 µM | 18.5 µM | 20.4 µM | IC50 [4]: 4.15 µM
22 | Cc1cccc(CNC(Cc2ccsc2)c2nc(C)c(C)s2)n1.Cl (centres undefined) | 8.25 µM | > 50.1 µM | 31.7 µM | pIC50 [1]: 5.24; IC50 (ClpP1P2): > 100 µM
23 | CCSCCNc1cc(C)nc2c(C)c(C)nn12 | 23.5 µM | 7.02 µM | 5.48 µM | 
24 | Nc1cc(N2CCOCC(Cc3ccc4[nH]ccc4c3)C2)ncn1 (centres undefined) |  | 13.4 µM | 28.8 µM | pIC50 [1]: < 4 and < 4.31
25 | Cc1csc(C(Cc2ccsc2)NC(=O)CN(C)Cc2ccccn2)n1 (centres undefined) | > 100 µM |  |  | IC50 (ClpP1P2): > 100 µM
26 | CC(C)C[C@H](N)COc1cccc(F)c1Oc1ccc(Cl)cc1 | 20.5 µM | 21 µM | 17.6 µM | 
27 | Cn1c(CCN2CCN(c3ccc(O)cc3)CC2)nc2ccccc21 | 68.5 µM |  |  | pIC50 [4]: 4.61; IC50 [4]: 23.8 µM
28 | Cc1nnc(NCc2ccccc2F)c(C#N)c1C | 78.6 µM |  |  | IC50 (Histidine--tRNA ligase): 16.9 µM and 23.1 µM
29 | Cc1nn(C)c(C)c1CCn1cncc1-c1ccc2c(c1)CC(C)N2C.Cl (centres undefined) | > 100 µM |  |  | IC50 (Leishmania donovani): > 50.1 µM; IC50 (Histidine--tRNA ligase): 43.1 µM and 43 µM; pIC50 (Plasmodium falciparum): 5.741; IC50 (Plasmodium falciparum): 1.72 µM
30 | CN[C@@H]1CCC[C@@H](Oc2ccccc2Oc2ccc(C)cc2)[C@@H]1O | 89.2 µM | > 50.1 µM | 35.8 µM | pIC50 (Leishmania donovani): 5.128; IC50 (Leishmania donovani): 5.46 µM; pIC50 (Plasmodium falciparum): 6.476; IC50 (Plasmodium falciparum): 0.349 µM; pIC50 [1]: 4.304
31 | COc1cccc(OC)c1CNC(Cc1ccsc1)c1ccc(C)cn1 (centres undefined) | 27 µM | 12.5 µM | 16.4 µM | pIC50 (Plasmodium falciparum): 5.969; IC50 (Plasmodium falciparum): 1.09 µM
32 | Fc1cccc(Nc2nc(N3CCCC3)nc3c2CNCC3)c1 | 25.8 µM | 18.8 µM | 23.6 µM | pIC50 (Leishmania donovani): 5.271; IC50 (Leishmania donovani): 3.49 µM
33 | CCCNC(=O)NC(=O)CNC(C)(C)c1ccc2c(c1)OCCO2 | 23.5 µM | 13.3 µM | 19 µM | 
34 | O[C@@H]1CN(CC2=Cc3cc(Cl)ccc3OC2)CC[C@H]1N1CCCCCC1 | 52.7 µM | 46.9 µM | 49.3 µM | 
35 | c1cnc(N2CCC(c3csc(Nc4cnccn4)n3)CC2)nc1 | > 100 µM |  |  | IC50 (Plasmodium falciparum): 0.0108 µM
36 | Cc1ncc(CNCCO)c2cc(C(=O)c3ccc(Br)cc3)oc12.Cl | > 49 µM |  |  | IC50 [4]: 9.37 µM; pIC50 (Plasmodium falciparum): 6.356; IC50 (Plasmodium falciparum): 0.541 µM
37 | CN(C)[C@@H]1CN(Cc2ccccc2O)C[C@H]1c1cn(C)c2ccccc12 | 28.3 µM |  |  | IC50 (ClpP1P2): > 100 µM
38 | Cc1ccc(Oc2c(F)cccc2OC[C@@H](N)CC(C)C)cc1 | 25.1 µM | 25.5 µM | 23.4 µM | pIC50 (Leishmania donovani): 5.171; IC50 (Leishmania donovani): 12.4 µM
39 | Cc1ccc(CN(CCCn2ccnc2)Cc2cccs2)s1 | 19.9 µM | 25.9 µM | 42 µM | IC50 (Tryptophan--tRNA ligase): > 195 µM
40 | Cc1cc(=O)[nH]c(-n2nc(C3CC3)cc2N)n1 | 27.5 µM | 41.2 µM | 30.1 µM | pIC50 (Leishmania donovani): < 4.3 and 4.677

Row | SMILES | IC50 [1] | IC50 [2] | IC50 [3] | further results
41 | CC(C)N(C(=O)Cn1c(-c2ccco2)cc2cccnc21)C(C)C | > 100 µM |  |  | IC50 (ClpP1P2): > 100 µM
42 | Cc1ccc(CN(CCCn2ccnc2)Cc2cc(F)ccc2F)s1.O=C(O)CC(O)(CC(=O)O)C(=O)O | 18.9 µM |  |  | IC50 [4]: 7.16 µM; pIC50 [1]: 4.62
43 | Cc1ccc(S(=O)(=O)NCCc2ccoc2)s1 | 31 µM | 46.2 µM | 38 µM | 
44 | O=C(CN1CC(c2nc(C3CC3)no2)C1)N1CCOCC1.O=C(O)C(=O)O | > 100 µM |  |  | pIC50 [4]: 5.075; IC50 [4]: 5.21 µM
45 | COc1ccc(F)c(CN(CCCn2ccnc2)Cc2ccc(C)s2)c1.O=C(O)CC(O)(CC(=O)O)C(=O)O | 27.4 µM |  |  | IC50 [4]: 7.3 µM; pIC50 [1]: 4.599
46 | COc1ccc(CNC(Cc2ccsc2)c2ccc(C)cn2)c(OC)c1 (centres undefined) | 17.9 µM | > 50.1 µM | 48.5 µM | 
47 | CCN(CC)c1nc(Nc2cccc(C(C)O)c2)nc2ccccc12 (centres undefined) | 12.2 µM | 22.9 µM | 25.7 µM | pIC50 [4]: 5.586; IC50 [4]: 2.08 µM; IC50 (ClpP1P2): > 100 µM
48 | COC(=O)[C@H](CCSC)NC(=O)Cn1ccc2c(Cl)cccc21 | 70.7 µM |  |  | 
49 | Cc1ccccc1C1CCN(CCn2cc(-c3cccc(O)c3)nn2)C1 (centres undefined) | 78.7 µM |  |  | 
50 | Cc1cc2ccccc2n1CCC(=O)N1CCN(C)CC1C(N)=O (centres undefined) | > 100 µM |  |  | 
51 | COc1cccc(C(NCc2ccc(SC)cc2)c2nccn2C)c1 (centres undefined) | 6.39 µM |  |  | 
52 | Cc1cccn2cc(CN3CCCC(c4noc(C5CC5)n4)C3)nc12 (centres undefined) | 46.5 µM |  |  | 
53 | CCC(NC(=O)Nc1ccc(OC)c(C)c1)c1ccncc1 (centres undefined) | 49.9 µM |  |  | 
54 | O=C(c1cc2cc(I)ccc2[nH]1)N1CCC(Nc2cccnn2)CC1 | 48.7 µM |  |  | 
55 | CCNC(=O)[C@@H]1C[C@H](NC(=O)Cn2ccnc2)CN1Cc1ccsc1 | > 100 µM |  |  | 
56 | COCC(=O)N1CCCC1c1cccc(Nc2ncc(C)s2)n1 (centres undefined) | > 100 µM |  |  | 
57 | CSc1nccc(-c2cccc(-c3ccn(CC4COCCO4)n3)c2)n1 (centres undefined) | 40.3 µM |  |  | 
58 | Clc1cccc(C[C@@H]2NCCC[C@@H]2Nc2cccc(Cl)c2)c1 | 5.94 µM | 9.04 µM | 6.67 µM | 
59 | CC1(c2ccccc2)CCCN(Cc2cncn2C2CC2)C1 (centres undefined) | 45.7 µM |  |  | 
60 | Cc1cc(NCc2ccccc2)nc2[nH]nc(N)c12 | 79.8 µM |  |  | 
